Values after ≈ are worked out from the molar mass of the structure shown. Active and inactive are the calls of the source. The calls are words filed in the database; no cut-off is given here.

In ChEMBL document CHEMBL3045696, “CsFCelite catalyzed facile N-alkylation of 2(3H)-benzoxazolones and antimicrobial properties of 2-substituted benzoxazole and 3-substituted-2(3H)-benzoxazolone derivatives” (2011) one finds zone of inhibition, MIC and Activity data, which are given here for twelve molecules.

What all share (assay type): functional
The subject of assay [1] is Aspergillus niger. Nature of the assay: Antimicrobial activity against Aspergillus niger MTCC 282 at 50 ug after 48 hr by agar well diffusion method. The note with it: MTCC 282, 48 h, read-out: IZ. For orientation: Agar diffusion results depend on both activity and mobility in agar.
Assay [2] concerns Saccharomyces cerevisiae. Nature of the assay: Antimicrobial activity against Saccharomyces cerevisiae MTCC 36 at 50 ug after 48 hr by agar well diffusion method. The note with it: MTCC 36, 48 h, read-out: IZ.
The test system of assay [3] is Candida albicans. The assay is described as follows: Antimicrobial activity against Candida albicans MTCC 227 at 50 ug after 48 hr by agar well diffusion method. The note with it: MTCC 227, 48 h, read-out: IZ.
The subject of assay [4] is Rhizopus arrhizus. The assay is described as follows: Antimicrobial activity against Rhizopus oryzae MTCC 262 at 50 ug after 48 hr by agar well diffusion method. The note with it: MTCC 262, 48 h, read-out: IZ.
A further assay has as its system Bacillus subtilis. The assay is described as follows: Antimicrobial activity against Bacillus subtilis MTCC 441 by broth dilution method.
For a further assay, the system named is Klebsiella pneumoniae. Nature of the assay: Antimicrobial activity against Klebsiella pneumoniae MTCC 618 by broth dilution method. Background: Dilution methods test growth across graded concentrations, often in twofold steps.
For assay [5], the system named is Rhizopus arrhizus. The assay is described as follows: Antimicrobial activity against Rhizopus oryzae MTCC 262 at 100 ug after 48 hr by agar well diffusion method. The note with it: for zone of inhibition at 100 µg/disc: MTCC 262, 48 h, read-out: IZ.
Assay [6] deals with Saccharomyces cerevisiae. Nature of the assay: Antimicrobial activity against Saccharomyces cerevisiae MTCC 36 at 100 ug after 48 hr by agar well diffusion method. The note with it: for zone of inhibition at 100 µg/disc: MTCC 36, 48 h, read-out: IZ.
Assay [7] deals with Rhizopus arrhizus. The assay is described as follows: Antimicrobial activity against Rhizopus oryzae MTCC 262 at 150 ug after 48 hr by agar well diffusion method. To be noted: for zone of inhibition at 150 µg/disc: MTCC 262, 48 h, read-out: IZ.
Assay [8] has as its system Aspergillus niger. The assay is described as follows: Antimicrobial activity against Aspergillus niger MTCC 282 at 100 ug after 48 hr by agar well diffusion method. The note with it: for zone of inhibition at 100 µg/disc: MTCC 282, 48 h, read-out: IZ.
Assay [9] deals with Candida albicans. Nature of the assay: Antimicrobial activity against Candida albicans MTCC 227 at 100 ug after 48 hr by agar well diffusion method. To be noted: for zone of inhibition at 100 µg/disc: MTCC 227, 48 h, read-out: IZ.
The test system of another assay is Pseudomonas aeruginosa. Nature of the assay: Antimicrobial activity against Pseudomonas aeruginosa MTCC 741 by broth dilution method.
In another assay the test system is Staphylococcus aureus. The assay is described as follows: Antimicrobial activity against Staphylococcus aureus MTCC 96 by broth dilution method.
Assay [10] relates to Staphylococcus epidermidis. The assay is described as follows: Antimicrobial activity against Staphylococcus epidermidis by broth dilution method.
Assay [11] has as its system Saccharomyces cerevisiae. The assay is described as follows: Antimicrobial activity against Saccharomyces cerevisiae MTCC 36 at 150 ug after 48 hr by agar well diffusion method. The note with it: for zone of inhibition at 150 µg/disc: MTCC 36, 48 h, read-out: IZ.
Assay [12] has as its system Candida albicans. Nature of the assay: Antimicrobial activity against Candida albicans MTCC 227 at 150 ug after 48 hr by agar well diffusion method. The note with it: for zone of inhibition at 150 µg/disc: MTCC 227, 48 h, read-out: IZ.
Assay [13] has as its system Aspergillus niger. The assay is described as follows: Antimicrobial activity against Aspergillus niger MTCC 282 at 150 ug after 48 hr by agar well diffusion method. The note with it: for zone of inhibition at 150 µg/disc: MTCC 282, 48 h, read-out: IZ.
The subject of a further assay is Escherichia coli. The assay is described as follows: Antimicrobial activity against Escherichia coli MTCC 443 by broth dilution method.

In the case of `C[C@@H]1[C@H](O)[C@@H](C)/C=C/C=C/C=C/C=C/C=C/C=C/C=C/[C@H](O[C@@H]2O[C@H](C)[C@@H](O)[C@H](N)[C@@H]2O)C[C@@H]2O[C@](O)(C[C@@H](O)C[C@@H](O)[C@H](O)CC[C@@H](O)C[C@@H](O)CC(=O)O[C@H]1C)C[C@H](O)[C@H]2C(=O)O` [AMPHOTERICIN B], the zone of inhibition at 50 µg/disc with Aspergillus niger [1] amounted to 25 mm; with Saccharomyces cerevisiae [2] it was 22 mm; in the assay with Candida albicans [3] it was 23.5 mm; in the assay on Rhizopus arrhizus [4], 24 mm.
Consider `c1ccc2oc(N3CCCCC3)nc2c1`, for which the MIC (against Bacillus subtilis; against Klebsiella pneumoniae; against Pseudomonas aeruginosa; against Staphylococcus aureus; in assay [10]; with Escherichia coli) was 150 µg/mL (≈ 742 µM) each time. Besides, the zone of inhibition at 100 µg/disc in the assay on Rhizopus arrhizus [5] is 8 mm; in the assay on Saccharomyces cerevisiae [6], 9 mm; with Aspergillus niger [8], 8 mm; in the assay with Candida albicans [9] it was 9 mm. Moreover, the zone of inhibition at 150 µg/disc is 11 mm in the assay with Rhizopus arrhizus [7], 12 mm in the assay on Saccharomyces cerevisiae [11], 12 mm in the assay on Candida albicans [12] and 10 mm with Aspergillus niger [13].
Regarding `C=CCn1c(=O)oc2ccc(Cl)cc21`, the minimal inhibitory concentration (MIC) in the assay with Bacillus subtilis turned out to be 150 µg/mL (≈ 716 µM); in the assay on Klebsiella pneumoniae it was 37.5 µg/mL (≈ 179 µM); against Pseudomonas aeruginosa, 75 µg/mL (≈ 358 µM); against Staphylococcus aureus, 150 µg/mL (≈ 716 µM); in [10], 150 µg/mL (≈ 716 µM); with Escherichia coli it was 150 µg/mL (≈ 716 µM). In addition, the result with Rhizopus arrhizus [5], in the assay with Saccharomyces cerevisiae [6], with Rhizopus arrhizus [7], in the assay with Candida albicans [9] and in the assay on Saccharomyces cerevisiae [11] was inactive. The zone of inhibition at 100 µg/disc with Aspergillus niger [8] is 8 mm. In addition, the zone of inhibition at 150 µg/disc in the assay with Candida albicans [12] is 8 mm; with Aspergillus niger [13] it was 10 mm.
Consider `O=c1oc2ccc(Cl)cc2n1CCCN1CCN(c2ncccn2)CC1`, for which the MIC (against Bacillus subtilis; against Klebsiella pneumoniae; against Pseudomonas aeruginosa; against Staphylococcus aureus; in assay [10]; against Escherichia coli) was 150 µg/mL (≈ 401 µM) in each case. Besides, the outcome with Rhizopus arrhizus [5], in the assay with Saccharomyces cerevisiae [6], in the assay with Rhizopus arrhizus [7], with Aspergillus niger [8], in the assay on Candida albicans [9] and in the assay on Saccharomyces cerevisiae [11] was inactive. Besides, the outcome in the assay on Candida albicans [12] and in the assay on Aspergillus niger [13] was inactive.
Consider `CC(C)=CCn1c(=O)oc2ccc(Cl)cc21`, for which the MIC against Bacillus subtilis stood at 150 µg/mL (≈ 631 µM); in the assay with Klebsiella pneumoniae it was 150 µg/mL (≈ 631 µM); against Pseudomonas aeruginosa, 75 µg/mL (≈ 316 µM); in the assay on Staphylococcus aureus, 150 µg/mL (≈ 631 µM); in assay [10], 75 µg/mL (≈ 316 µM); against Escherichia coli, 150 µg/mL (≈ 631 µM). In the assay with Rhizopus arrhizus [5], the result was inactive. Moreover, the results for the zone of inhibition at 100 µg/disc with Saccharomyces cerevisiae [6], with Aspergillus niger [8] and in the assay with Candida albicans [9] were 8 mm, 8 mm and 7 mm, respectively. The zone of inhibition at 150 µg/disc in the assay on Rhizopus arrhizus [7] came to 9 mm; in the assay on Saccharomyces cerevisiae [11] it was 10 mm; with Candida albicans [12] it was 10 mm; in the assay with Aspergillus niger [13], 11 mm.
Consider `c1ccc2oc(N3CCCNCC3)nc2c1`, for which the MIC turned out to be 150 µg/mL (≈ 690 µM) against Bacillus subtilis; 75 µg/mL (≈ 345 µM) in the assay with Klebsiella pneumoniae; 75 µg/mL (≈ 345 µM) against Pseudomonas aeruginosa; 150 µg/mL (≈ 690 µM) in the assay with Staphylococcus aureus; 150 µg/mL (≈ 690 µM) in assay [10]; 75 µg/mL (≈ 345 µM) in the assay with Escherichia coli. In addition, in the assay with Rhizopus arrhizus [5], the zone of inhibition at 100 µg/disc is 8 mm. In addition, the outcome in the assay on Saccharomyces cerevisiae [6], in the assay on Aspergillus niger [8], in the assay with Candida albicans [9], in the assay on Saccharomyces cerevisiae [11], with Candida albicans [12] and in the assay on Aspergillus niger [13] was inactive. In the assay with Rhizopus arrhizus [7], the zone of inhibition at 150 µg/disc amounted to 10 mm.
As to `O=c1oc2ccc(Cl)cc2n1Cc1ccccc1`, the MIC in the assay with Bacillus subtilis was 150 µg/mL (≈ 578 µM); with Klebsiella pneumoniae, 75 µg/mL (≈ 289 µM); against Pseudomonas aeruginosa it was 150 µg/mL (≈ 578 µM); against Staphylococcus aureus, 75 µg/mL (≈ 289 µM); in assay [10], 75 µg/mL (≈ 289 µM); against Escherichia coli, 150 µg/mL (≈ 578 µM). Further, the result in the assay on Rhizopus arrhizus [5], with Saccharomyces cerevisiae [6], with Rhizopus arrhizus [7], with Aspergillus niger [8], with Candida albicans [9] and in the assay with Saccharomyces cerevisiae [11] was inactive. In addition, the result with Candida albicans [12] and in the assay on Aspergillus niger [13] was inactive.
`O=c1oc2ccc(Cl)cc2n1CCCN1CCN(c2ccccc2)CC1`: the MIC (against Bacillus subtilis; in the assay on Klebsiella pneumoniae; with Pseudomonas aeruginosa; in the assay on Staphylococcus aureus; in [10]; against Escherichia coli) was 150 µg/mL (≈ 403 µM) throughout. For the same molecule, the outcome with Rhizopus arrhizus [5], in the assay on Saccharomyces cerevisiae [6], in the assay on Rhizopus arrhizus [7], with Aspergillus niger [8], in the assay on Candida albicans [9] and in the assay with Saccharomyces cerevisiae [11] was inactive. Further, the result with Candida albicans [12] and with Aspergillus niger [13] was inactive.
For the molecule `O=c1oc2ccc(Cl)cc2n1CCCN1CCN(Cc2ccccc2)CC1`, the MIC amounted to 150 µg/mL (≈ 389 µM) with Bacillus subtilis; 150 µg/mL (≈ 389 µM) against Klebsiella pneumoniae; 75 µg/mL (≈ 194 µM) with Pseudomonas aeruginosa; 150 µg/mL (≈ 389 µM) with Staphylococcus aureus; 75 µg/mL (≈ 194 µM) in [10]; 150 µg/mL (≈ 389 µM) in the assay on Escherichia coli. For the same molecule, the outcome with Rhizopus arrhizus [5], with Saccharomyces cerevisiae [6], with Rhizopus arrhizus [7], with Candida albicans [9] and in the assay with Saccharomyces cerevisiae [11] was inactive. Besides, the zone of inhibition at 100 µg/disc with Aspergillus niger [8] came to 7 mm. Besides, the zone of inhibition at 150 µg/disc with Candida albicans [12] and in the assay with Aspergillus niger [13] was 9 mm each time.
As to `CC1CN(c2nc3ccccc3o2)CCN1` (stereo not drawn), the MIC against Bacillus subtilis is 150 µg/mL (≈ 690 µM); with Klebsiella pneumoniae it was 150 µg/mL (≈ 690 µM); in the assay with Pseudomonas aeruginosa, 150 µg/mL (≈ 690 µM); in the assay with Staphylococcus aureus, 150 µg/mL (≈ 690 µM); in assay [10], 150 µg/mL (≈ 690 µM); in the assay with Escherichia coli, 75 µg/mL (≈ 345 µM). In addition, the result in the assay with Rhizopus arrhizus [5], with Saccharomyces cerevisiae [6], in the assay on Rhizopus arrhizus [7], in the assay on Aspergillus niger [8], with Candida albicans [9] and in the assay on Saccharomyces cerevisiae [11] was inactive. Further, the result in the assay with Candida albicans [12] and with Aspergillus niger [13] was inactive.
In the case of `CN1CCN(c2nc3ccccc3o2)CC1`, the MIC against Bacillus subtilis worked out at 150 µg/mL (≈ 690 µM); with Klebsiella pneumoniae it was 150 µg/mL (≈ 690 µM); with Pseudomonas aeruginosa, 150 µg/mL (≈ 690 µM); in the assay on Staphylococcus aureus, 150 µg/mL (≈ 690 µM); in assay [10], 75 µg/mL (≈ 345 µM); with Escherichia coli, 150 µg/mL (≈ 690 µM). The outcome in the assay with Rhizopus arrhizus [5], in the assay with Saccharomyces cerevisiae [6], in the assay with Rhizopus arrhizus [7], in the assay on Aspergillus niger [8], in the assay with Candida albicans [9] and with Saccharomyces cerevisiae [11] was inactive. Moreover, the outcome in the assay with Candida albicans [12] and in the assay with Aspergillus niger [13] was inactive.
Regarding `C=CCCn1c(=O)oc2ccc(Cl)cc21`, the MIC came out at 150 µg/mL (≈ 671 µM) in the assay on Bacillus subtilis; 37.5 µg/mL (≈ 168 µM) in the assay on Klebsiella pneumoniae; 150 µg/mL (≈ 671 µM) in the assay with Pseudomonas aeruginosa; 150 µg/mL (≈ 671 µM) against Staphylococcus aureus; 150 µg/mL (≈ 671 µM) in assay [10]; 150 µg/mL (≈ 671 µM) against Escherichia coli. Also, the zone of inhibition at 100 µg/disc in the assay on Rhizopus arrhizus [5] was determined as 9 mm. In addition, the result with Saccharomyces cerevisiae [6], in the assay on Aspergillus niger [8], in the assay on Candida albicans [9], in the assay with Saccharomyces cerevisiae [11], in the assay with Candida albicans [12] and with Aspergillus niger [13] was inactive. Moreover, the zone of inhibition at 150 µg/disc in the assay with Rhizopus arrhizus [7] was determined as 13 mm.

By MIC is commonly meant the least concentration at which growth counts as inhibited. Low readings indicate a more susceptible organism, high ones a less susceptible organism.
